Assay results published in ChEMBL document CHEMBL1201862, “PubChem BioAssay data set” (2004).
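Growth conditions: 96-well plates. Treatment: test compound, 48 hours, 5 concentrations. Analysis: linear interpolation between bracketing concentrations; unreached endpoints set to highest concentration. GI50 is the concentration that inhibits growth by half.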 Calls of active or inactive are those of the source. Rule as the data show it: active = GI50 up to about 1.1 µM and inactive = higher.

Key:
Test in all cases: NCI anticancer screen, dose series, 48 h
786-0 = system: 786-0
A549 = system: A549
ACHN = system: ACHN
CAKI-1 = system: CAKI-1
HCC 2998 = system: HCC 2998
HL-60 = system: HL-60
HOP-62 = system: HOP-62
K562 = system: K562
MCF7 = system: MCF7
MDA-MB-435 = system: MDA-MB-435
MOLT-4 = system: MOLT-4
NCI-H460 = system: NCI-H460
NCI/ADR-RES = system: NCI/ADR-RES
OVCAR-5 = system: OVCAR-5
SK-MEL-28 = system: SK-MEL-28
SK-MEL-5 = system: SK-MEL-5
SR = system: SR
TK-10 = system: TK-10
UACC-257 = system: UACC-257

Measured: GI50

CCOC(=O)C1=c2[nH]c3cccc4cccc(c43)n2C=C(C(C)=O)C1CC(C)=O (stereo not given)
inactive: 786-0 40.4 µM | A549 46.2 µM | ACHN 80 µM | CAKI-1 56.6 µM | HCC 2998 62.7 µM | HL-60 12.3 µM | HOP-62 68.7 µM | K562 > 100 µM | MCF7 94.2 µM | MDA-MB-435 52.6 µM | MOLT-4 > 100 µM | NCI-H460 > 100 µM | NCI/ADR-RES > 100 µM | OVCAR-5 > 100 µM | SK-MEL-28 > 100 µM | SK-MEL-5 > 100 µM | SR > 100 µM | TK-10 > 100 µM | UACC-257 > 100 µM

CC1NOC(=O)C1/N=N/c1cccc(Cl)c1 (stereo not given)
inactive: 786-0 30.2 µM | A549 33.2 µM | ACHN 40.9 µM | CAKI-1 38.6 µM | HCC 2998 > 100 µM | HL-60 18.4 µM | HOP-62 51.3 µM | K562 25.6 µM | MOLT-4 24.5 µM | NCI-H460 31.2 µM | OVCAR-5 47.5 µM | SK-MEL-28 43.9 µM | SK-MEL-5 19.9 µM | SR 21.2 µM | TK-10 42.8 µM | UACC-257 29 µM

O=C(c1ccc(Cl)cc1)c1ccc(OCC(=O)N2CCN(c3ccccc3)CC2)cc1
inactive: 786-0 > 100 µM | A549 > 100 µM | ACHN > 100 µM | CAKI-1 > 100 µM | HCC 2998 > 100 µM | HL-60 > 100 µM | HOP-62 > 100 µM | K562 > 100 µM | MOLT-4 62.7 µM | NCI-H460 > 100 µM | OVCAR-5 > 100 µM | SK-MEL-28 > 100 µM | SK-MEL-5 41.6 µM | SR 84.5 µM | TK-10 > 100 µM | UACC-257 61 µM

NS(=O)(=O)c1cc2c(cc1Cl)NC(C(=O)c1cc(=O)c3ccc(O)cc3o1)=NS2(=O)=O
inactive: 786-0 > 100 µM | A549 > 100 µM | ACHN > 100 µM | CAKI-1 > 100 µM | HCC 2998 > 100 µM | HL-60 > 100 µM | HOP-62 > 100 µM | K562 > 100 µM | MOLT-4 > 100 µM | NCI-H460 > 100 µM | OVCAR-5 > 100 µM | SK-MEL-28 > 100 µM | SK-MEL-5 > 100 µM | SR > 100 µM | TK-10 > 100 µM | UACC-257 > 100 µM

COC(=O)c1c(C)[nH]c2c1C(=O)C(=O)c1nc(C)c(C)nc1-2
inactive: 786-0 10.4 µM | A549 7.52 µM | ACHN 2.85 µM | CAKI-1 6.75 µM | HCC 2998 8.85 µM | HL-60 9.23 µM | HOP-62 5.98 µM | K562 9.38 µM | MCF7 7.48 µM | MDA-MB-435 10.7 µM | MOLT-4 7.66 µM | NCI-H460 5.27 µM | NCI/ADR-RES 12.7 µM | OVCAR-5 11.7 µM | SK-MEL-28 11.1 µM | SK-MEL-5 5.77 µM | SR 5.33 µM | TK-10 3.6 µM | UACC-257 11 µM

O=C1C=C(c2c(O)ccc3ccccc23)c2cc(O)ccc2C1=O
inactive: 786-0 18.7 µM | A549 18.2 µM | ACHN 17.4 µM | CAKI-1 19.5 µM | HCC 2998 18.6 µM | HL-60 2.02 µM | HOP-62 20 µM | K562 > 100 µM | MOLT-4 3.09 µM | NCI-H460 20.3 µM | OVCAR-5 21.1 µM | SK-MEL-28 20.7 µM | SK-MEL-5 15.1 µM | SR 6.59 µM | TK-10 20.9 µM | UACC-257 17.9 µM

O=C1OC(CC(=O)c2ccccc2Cl)C(Cl)=C1Cl (stereo not given)
inactive: 786-0 > 100 µM | A549 > 100 µM | ACHN > 100 µM | CAKI-1 > 100 µM | HCC 2998 > 100 µM | HL-60 > 100 µM | HOP-62 > 100 µM | K562 > 100 µM | MOLT-4 > 100 µM | NCI-H460 > 100 µM | OVCAR-5 > 100 µM | SK-MEL-28 > 100 µM | SK-MEL-5 > 100 µM | SR > 100 µM | TK-10 > 100 µM | UACC-257 > 100 µM

CS/C(=N\C(=S)Nc1ccccc1)Nc1ccccc1
inactive: 786-0 > 10 µM | A549 16.5 µM | ACHN 17.5 µM | CAKI-1 14.6 µM | HCC 2998 21.7 µM | HL-60 10.6 µM | HOP-62 27.9 µM | K562 12.6 µM | MOLT-4 12.9 µM | NCI-H460 12 µM | OVCAR-5 23.6 µM | SK-MEL-28 15 µM | SK-MEL-5 6.01 µM | SR 15.4 µM | TK-10 14.2 µM | UACC-257 > 10 µM

O=C1OC(=O)C2C3CCC(O3)C12 (stereo not given)
inactive: 786-0 > 100 µM | A549 > 100 µM | ACHN > 100 µM | CAKI-1 > 100 µM | HCC 2998 > 100 µM | HL-60 > 100 µM | HOP-62 > 100 µM | K562 > 100 µM | MOLT-4 > 100 µM | NCI-H460 > 100 µM | OVCAR-5 > 100 µM | SK-MEL-28 > 100 µM | SK-MEL-5 > 100 µM | SR > 100 µM | TK-10 > 100 µM | UACC-257 > 100 µM
